Measured values from patent US20090226536A1, “METHODS AND MATERIALS RELATING TO ENHANCED PRODUCTION OF DOPAMINE NEURONS” (priority 2004, published 2009).

Tests used:
[1] = test system: rat VM E14.5 precursor cultures; assay: TH immunostaining, number of TH+ cells in VM precursor cultures; assay type: cell-based; conditions: for dose of maximal effect / optimal dose to increase TH+ cell numbers: dose-response in E14.5 VM precursors; for increase in the number of TH positive cells (maximal effect): rat VM E14.5 precursor cultures, three days in vitro, at 3-5 μM I3M, 15 μM KP
Procedure: (§1) E14.5 VMs obtained from time-mated Sprague-Dawley rats (ethical approval for animal experimentation was granted by Stockholms Norra Djurförsöks Etiska Nämnd) were dissected, mechanically dissociated, and plated at a final density of 1×10^5 cells per cm2 on poly-D-lysine coated plates (Falcon) in serum-free N2 medium, consisting of a 1:1 mixture of F12 and MEM (Invitrogen) with 5 μg/ml insulin, 100 μg/ml transferrin, 100 μM putrescine, 20 nM progesterone, 30 nM selenium, 6 mg/ml glucose and 1 mg/ml BSA (all purchased from Sigma). Cultures were kept three days in vitro, in a 37° C. incubator, at 5% CO2, before fixation. MN9D and SN4741 cells were grown as described in Choi et al., 1991 and Son et al., 1999. MN9D cultures were fixed after four days in vitro. I3M and KP (Alexis Biochemicals, Göteborg, Sweden) were diluted in DMSO and added to the cultures at the time of plating. […] 10 μM BrdU was added to the culture media 6 hours prior to fixation.
(§2) Cells were fixed in ice-cold 4% paraformaldehyde for 20 minutes and washed in PBS. For a detailed protocol of immunocytochemistry, see Castelo-Branco et al., 2003 (7). The following primary and secondary antibodies were used: mouse α-TH (1:1000 dilution—Immunostar), rabbit α-TH (1:250-Pelfreeze), mouse α-β-III-tubulin (1:1000-Promega), rabbit α.Nurr1 (1:1000-Santa Cruz), mouse α-MAP2 (1:200—Sigma), rabbit A-GFAP (1:400-Dako), mouse α.active-caspase III (1:100-Cell Signaling), mouse α-BrdU (1:100-Dako) and rat α.BrdU (1:100-Abcam), biotinylated 1:500, Cyanine-2 or rhodamine-coupled horse-α-mouse IgG 1:200 or goat α-rabbit IgG 1:200, from Vector and Jackson Laboratories). At the end of the staining procedure, the cultures were incubated with Hoechst 33258 reagent for 10 minutes. BrdU immunocytochemistry included an incubation for 30 minutes with 2NHCL. Images were acquired from stained cells in PBS at room temperature with a Zeiss Axioplan 100M microscope (LD Achrostigmat 20×, 0.3 PH1. 0-2 and LD Achroplan 40×, 0.60 Korr PH2. 0-2) and collected with a Hamamatsu camera C4742-95 (with QED imaging software).
(§3) Quantitative immunocytochemical data represent the means±standard errors of counts from ten non-overlapping fields, in three wells per condition from three to five separate experiments. For the RT-PCR experiments, five separate experiments were analysed and for the GSK-3β inhibitors dose response, two sets of experiments were analysed. Statistical analysis was performed in Prism 4 (GraphPad software, San Diego, USA) as described in the figure legends, with […] significance for all tests assumed at the level of p<0.05 (*p<0.05; **0.01<p<0.001; ***p<0.001). Statistical tests were chosen according to the distribution of the sample population.

[2] = target: T1, GSK-3β (Mus musculus, UniProt Q9WV60); assay: Immunoblotting of GSK-3β protein levels in SN4741 cells; assay type: cell-based; conditions: 15 μM KP and 5 μM I3M for 24 hours
T1 construct: treatment of a DA precursor cell line derived from the substantia nigra, SN4741 (21) with KP or I3M led to a downregulation of GSK-3β protein levels; endogenous in cells; host or cells: SN4741 cells
T1 sequence (Q9WV60 whole entry): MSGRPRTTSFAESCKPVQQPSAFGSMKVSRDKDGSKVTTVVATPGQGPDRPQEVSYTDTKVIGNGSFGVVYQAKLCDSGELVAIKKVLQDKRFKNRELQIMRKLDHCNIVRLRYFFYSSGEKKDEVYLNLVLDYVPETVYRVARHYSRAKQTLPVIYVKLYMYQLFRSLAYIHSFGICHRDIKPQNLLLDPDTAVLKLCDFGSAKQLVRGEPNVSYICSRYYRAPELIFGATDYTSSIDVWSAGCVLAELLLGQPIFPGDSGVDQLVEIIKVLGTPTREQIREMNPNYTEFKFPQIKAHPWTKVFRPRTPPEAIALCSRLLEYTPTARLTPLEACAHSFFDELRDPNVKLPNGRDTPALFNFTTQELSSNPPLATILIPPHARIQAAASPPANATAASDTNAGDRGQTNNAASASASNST
Procedure: as §1
(§4) Cell were lysed for 15 min in a modified RIPA buffer containing 20 mM Tris (pH 7.5), 140 mM NaCl, 10% glycerol, 1% IGEPAL, 1 mM β-glycerol-phosphate, 1 mM Na3VO4 and complete protease inhibitors (Roche). Plates were scraped and the cell lysate was centrifuged in a microfuge for 5 min. […] Equal amounts of protein were analysed by polyacrylamide gel electrophoresis (10% polyacrylamide). […]

[3] = test system: VM precursors; assay: Immunostaining for neuronal and glial differentiation (GFAP, TuJ1, MAP2, TH) of VM precursors; assay type: cell-based, rat; conditions: three days, 15 μM KP and 5 μM I3M
Procedure: as §1, §2, §3

[4] = test system: VM precursor cultures; assay: Total cell number, proliferation (BrdU) and active Caspase 3 in VM precursor cultures; assay type: cell-based, rat; conditions: for active Caspase 3 immunostaining: VM precursor cultures; for active Caspase 3 immunostaining / proliferation (BrdU incorporation): 15 μM KP, 5 μM I3M; for proliferation (BrdU incorporation): VM precursors, 6 h BrdU pulse; for total number of VM cells (Hoechst 33258 staining): after 3 days in culture, 15 μM KP and 5 μM I3M
Procedure: as §1, §2, §3

[5] = test system: β-catenin; assay: Immunoblotting of β-catenin protein in VM precursors; assay type: cell-based, rat; conditions: 15 μM KP or 5 μM I3M for 24 hours
Procedure: as §1, §4

[6] = test system: TH; assay: Immunoblotting of TH protein in VM precursors; assay type: cell-based, rat; conditions: 15 μM KP or 5 μM I3M for 24 hours
Procedure: as §1, §4

[7] = test system: GSK-3β and CDKs; conditions: at 3-5 μM I3M and 15 μM KP; refs (20, 13); cited from earlier work
[8] = test system: MN9D cells; assay: MN9D cell number, proliferation and morphological differentiation; assay type: cell-based
Procedure: as §1, §2

[9] = test system: c-ret mRNA; assay: Real time RT-PCR of c-ret mRNA in VM precursor cultures; assay type: cell-based, rat; conditions: 15 μM KP, three days in vitro
Excerpt: Total RNA was isolated from E14.5 VM precursor cultures (2.5×10^6 cells in 6 cm2 dishes) treated with the GSK-3β inhibitors for three days in vitro. For a description of reverse transcription reaction, real-time RT-PCR and c-ret primer sequences, see Castelo-Branco et al., 2003 (7). Quantum RNA classical 18S internal standard was purchased from Ambion (Austin, USA) and PCR primers from DNA Technology A/S, Aarhus, Denmark. The following PCR programme was used for SYBR Green detection on the ABI PRISM 5700 Detection System (PE AppliedBiosystems, Foster City, Calif., USA): 94° C. for 2 min, 35-40 cycles of 94° C. for 30 s, 59° C. for 30s, 72° C. for 15s and 80° C. for 5s. Statistical analysis of the results was performed by a 2-tailed Wilcoxon signed rank test. Significance for all tests was assumed at the level of p<0.05 (*p<0.05; **0.01<p<0.001; ***p<0.001).

[10] = test system: VM Nurr1+ precursors; assay: TH/Nurr1 double immunostaining, conversion of Nurr1+ precursors into TH+ neurons; assay type: cell-based, rat; conditions: three days after treatment with 15 μM KP
Procedure: as §1
Cells were fixed in ice-cold 4% paraformaldehyde for 20 minutes and washed in PBS. […]
Quantitative immunocytochemical data represent the means±standard errors of counts from ten non-overlapping fields, in three wells per condition from three to five separate experiments. For the RT-PCR experiments, five separate experiments were analysed and for the GSK-3β inhibitors dose response, two sets of experiments were analysed. […]

[11] = MN9D cells, 15 μM KP for four days

| GSK-3β protein levels [2] | SMILES | dose of maximal effect / optimal dose to increase TH+ cell numbers [1] | increase in the number of TH positive cells (maximal effect) [1] | immature neurons (TuJ1 positive cells/Hoechst 33258) [3] | number of mature neurons (MAP2 positive cells/Hoechst 33258) [3] | proportion of TH+ DA neurons (TH+/TuJ1+ cells) [3] | total number of astrocytes (GFAP positive cells/Hoechst 33258) [3] | active Caspase 3 immunostaining [4] | proliferation (BrdU incorporation) [4] | total number of VM cells (Hoechst 33258 staining) [4] | β-catenin protein levels [5] | TH protein levels [6] | kinase selectivity at the concentrations used [7] | morphological differentiation of MN9D cells ([8]; 15 μM KP for four days) | neurite extension of MN9D cells ([8]; KP treatment) | proliferation (BrdU incorporation) [8, 11] | total number of cells (Hoechst 33258) [8, 11] | c-ret mRNA levels [9] | increase in the number of TH/Nurr1 double positive cells [10] |
| --- | --- | --- | --- | --- | --- | --- | --- | --- | --- | --- | --- | --- | --- | --- | --- | --- | --- | --- | --- |
| decreases | O=C1Nc2ccccc2/C1=C1/Nc2ccccc2/C1=N\O [I3M, Indirubin-3-monoxime] | 3 to 5 µM | five | increased | increase | marked increase | increased | reduced | significantly decreased | did not change | increased | increased | inhibits both GSK-3β and CDKs |  |  |  |  |  |  |
| decreases | O=C1Cc2c([nH]c3ccc(Br)cc23)-c2ccccc2N1 [KP, Kenpaullone] | 15 µM | three | increased | increase | marked increase | increased | not modified | not affected | did not change | increased | increased | GSK-3β selective inhibitor | induced morphological differentiation | increase | did not alter | did not alter | upregulated | 2.5 fold |
